Data set [1] has as its target T1, GPX4 (Homo sapiens, UniProt P36969).
T1 sequence (P36969 1-170 isoform P36969-2): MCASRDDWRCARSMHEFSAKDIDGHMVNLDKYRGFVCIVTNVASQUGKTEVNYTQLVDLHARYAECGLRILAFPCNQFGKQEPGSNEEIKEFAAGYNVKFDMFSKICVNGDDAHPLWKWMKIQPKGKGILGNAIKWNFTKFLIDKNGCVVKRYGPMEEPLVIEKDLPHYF
Description: GPX4 degradation by western blot in 786-O cells. It is filed as cell-based. Further details: endogenous in cells; host or cells: 786-O. Particulars: 24 h. An excerpt: As previously mentioned, drug resistance and limited application scope are the significant challenges of traditional PROTAC, due partly to CRBN/VHL mutations or low expression. In this study, we investigated whether the developed HSP70‐PROTAC could address these challenges. Specifically, we examined the developed HSP70‐PROTAC in scenarios where VHL‐ or CRBN‐based PROTACs are ineffective due to intrinsic or acquired resistance. Several previously reported representative GPX4‐targeting degraders, including dGPX4 (CRBN‐based PROTAC, Figure 1A), 8e (VHL‐based PROTAC, Figure 1B), and GDCNF‐11/2 (HSP90‐based HIM‐PROTAC, Figure 1C, the structure of the GDCNF‐11 derivative GDCNF‐2 was not shown) were selected as control agents.^[ [18], [23], [28] ^] […] The clear cell renal cell carcinoma (ccRCC) 786‐O cell line is a well‐established cancer cell model characterized by an intrinsic deficiency in VHL expression.^[ [43], [44], [45] ^] We also confirmed this characteristic through evaluating the VHL expression levels in several randomly selected cancer cell lines (Figure S10A, Supporting Information). We further selected 786‐O cells as a model to confirm whether HSP70‐PROTAC could be used in such cases as an alternative to VHL‐based degraders, because VHL‐based PROTACs cannot be used to treat kidney cancer with a mutation or deletion in the VHL gene.
Cells were seeded at a density of 4 × 10^5 cells well^−1 in 6‐well plates and allowed to incubate overnight. Cells were incubated with the indicated treatments. Thereafter, the cells were collected and lysed with RIPA buffer containing serine protease and phosphatase inhibitors for 30 min on ice. Proteins were quantified by using a BCA protein assay kit (Beyotime). Subsequently, SDS‐PAGE sample loading buffer was added, and the mixture was heated in a 100 °C metal bath for 10 min to denature the proteins. Protein samples from each group were separated by SDS‐PAGE gel and transferred to a PVDF membrane. After blocking with 5% skim milk for 1 h at room temperature, primary antibodies (GPX4: abcam (#ab125066, 1:1000); Hsp70: abcam (#ab2787, 1:1000); CHIP: HUABIO (#ST7108, 1:1000); UpingBio Technology Co., Ltd. (BRD4, #YP‐Ab‐18034, 1:1000; BAG‐1, #YP‐Ab‐00575, 1:1000); GAPDH: Proteintech (#60004‐1‐Ig, 1:50 000)) were used and incubated at 4 °C overnight on a rotary shaker. After washing the membranes with TBST buffer five times, the membranes were incubated with a second antibody (Cell Signaling Technology, #7074S, 1:1000 and #7076S, 1:1000) at room temperature for 2 h. Ultimately, the membrane was washed five times, and the antibody‐protein complexes were visualized using an ECL luminescence reagent (Biosharp, Shanghai, China). The relative intensities of the bands were analyzed by ImageJ and normalized to a loading control.

Data set [2] addresses T1, GPX4. Description: GPX4 degradation by western blot in MDA-MB-231 cells. In kind it is cell-based. Set-up: determine the changes in the endogenous levels of GPX4 by western blot assay; endogenous in cells. Particulars: 24 h. On the procedure:
To further confirm this degradation efficacy, an in‐cell western (ICW) assay, a quantitative immunofluorescence cell‐based technique, was performed to quantify the relative expression level of GPX4 after treatment with GDAz‐3 for 24 h. […] Given the promising GPX4 degradation activity of GDAz‐3, we extended our evaluation to additional ferroptosis‐sensitive cell lines, including triple‐negative breast cancer cells (MDA‐MB‐231) and melanoma cells (mouse B16‐F10). […] Based on the observation that GDAz‐3 was particularly effective in HT1080 cells, we selected this cell line for further degradation mechanism and ferroptosis pharmacodynamics studies.
Cells were seeded at a density of 4 × 10^5 cells well^−1 in 6‐well plates and allowed to incubate overnight. Cells were incubated with the indicated treatments. Thereafter, the cells were collected and lysed with RIPA buffer containing serine protease and phosphatase inhibitors for 30 min on ice. Proteins were quantified by using a BCA protein assay kit (Beyotime). […] Ultimately, the membrane was washed five times, and the antibody‐protein complexes were visualized using an ECL luminescence reagent (Biosharp, Shanghai, China). The relative intensities of the bands were analyzed by ImageJ and normalized to a loading control.
For orientation: Immunoblotting shows a protein as a band on a membrane.

The nature of data set [3]: Relative drug biodistribution in HT1080 xenograft mice (LC-MS/MS). Particulars: 50 mg/kg, 12 h, n = 1. In kind it is in vivo, nude mice. The text has this: In addition, the tumor samples from the six treatment groups were randomly collected and probed for the levels of GPX4, and 4‐HNE (4‐hydroxynonenal, a lipid peroxidation marker) by immunohistochemistry (IHC) staining (Figure 7G). […] Collectively, the HSP70‐PROTAC GDAz‐3 has been confirmed as an effective ferroptosis‐inducing agent, which can degrade GPX4 both in vitro and in vivo via UPS and CMA dual processes.
GDAz‐3 was intravenously injected into an HT1080‐bearing xenograft tumor mouse model at 50 mg kg^−1. After 12 h of treatment, samples of tumor tissue and major organs, including the heart, liver, spleen, lung, kidney, and intestine, were collected. After weighing, these samples were processed into homogenates, and 500 µL of cold methanol was added. After thorough mixing, the supernatant was generated by centrifugation (4 °C, 12 000 rpm, 15 min), and then analyzed by liquid chromatography‐tandem mass spectrometry (Agilent 6495C Triple Quadrupole LC/MS). In brief, a volume of 1 µL from each sample was extracted and injected into a Waters Acquity Premmier BEH C18 (2.1 × 50 mm, 1.7 µm) column. The solvent delivery module was used to deliver an HPLC gradient of 20–95% B over 7 min (A: 0.1% formic acid in water, B: acetonitrile) at a flow rate of 0.3 mL min^−1. […] The quantification was performed based on peak area. […]

With `COc1ccc(-c2nc(-c3cc(C(F)(F)F)cc(C(F)(F)F)c3)n(Cc3ccc(C(=O)NCCOCCOCCOCCn4cc(COc5ccc(N(C(=O)CCl)C(C(=O)NCCc6ccccc6)c6cccs6)cc5Cl)nn4)cc3)c2-c2ccc(OC)cc2)cc1` (stereo not drawn) [GDAz-3, 4-((2-(3,5-bis(trifluoromethyl)phenyl)-4,5-bis(4-methoxyphenyl)-1H-imidazol-1-yl)methyl)-N-(2-(2-(2-(2-(4-((2-chloro-4-(2-chloro-N-(2-oxo-2-(phenethylamino)-1-(thiophen-2-yl)ethyl)acetamido)phenoxy)methyl)-1H-1,2,3-triazol-1-yl)ethoxy)ethoxy)ethoxy)ethyl)benzamide], the “GPX4 degradation in 786-O cells” value on GPX4 [1] (0.5 µM) is “obvious GPX4 degradation”. Besides, the remaining activity at 0.1 µM on GPX4 [1] (786-0, 786-O cell line, 0.1 µM, read-out: GPX4 % of control) worked out at 89%. The remaining activity at 0.5 µM at GPX4 [1] (786-0, 786-O cell line, 0.5 µM, read-out: GPX4 % of control) came to 54%. At GPX4 [1] (786-0, 786-O cell line, 1 µM, read-out: GPX4 % of control), the remaining activity at 1 µM worked out at 33%. The GPX4 degradation entry on GPX4 [2] is given as “effectively induce the degradation of GPX4 to varying extents”. Besides, the “Concentration in tumor tissue relative to other tissues” value in data set [3] was “significantly higher than that in other tissues”.

(Values after publication PMC12948223, “HSP70 Interactome‐Mediated Proteolysis Targeting Chimera (HSP70‐PROTAC) for Ferroptosis‐Driven Cancer Treatment” (Advanced Science, 2025).)
